This is an account of results in US9255101B2 (BIOPROJECT, priority 2012, dated 2016).

Each structure is given as a SMILES string. pIC50, pKi: −log10 of the molar value. Where a name gives a salt, the structure may show the parent alone.

The target in experiment [1] is T1, human H4 receptor (Homo sapiens, UniProt Q9H3N8). As to the kind of experiment: biochemical.
The target in experiment [2] is T1, human H4 receptor. As to the kind of experiment: biochemical. The source holds these as a separate data set.
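For pIC50 in this document: membranes from SH-SY5Y cells with stable human H4 receptor expression, incubated with GDP 10 µM, radioactivity retained on filters counted by liquid scintillation.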
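For pKi in this document: radioligand displacement of a [3H]-labelled ligand from membranes of CHO cells stably expressing human H4 receptor, bound radioactivity counted on filters by liquid scintillation.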

T1 sequence (Q9H3N8 whole entry): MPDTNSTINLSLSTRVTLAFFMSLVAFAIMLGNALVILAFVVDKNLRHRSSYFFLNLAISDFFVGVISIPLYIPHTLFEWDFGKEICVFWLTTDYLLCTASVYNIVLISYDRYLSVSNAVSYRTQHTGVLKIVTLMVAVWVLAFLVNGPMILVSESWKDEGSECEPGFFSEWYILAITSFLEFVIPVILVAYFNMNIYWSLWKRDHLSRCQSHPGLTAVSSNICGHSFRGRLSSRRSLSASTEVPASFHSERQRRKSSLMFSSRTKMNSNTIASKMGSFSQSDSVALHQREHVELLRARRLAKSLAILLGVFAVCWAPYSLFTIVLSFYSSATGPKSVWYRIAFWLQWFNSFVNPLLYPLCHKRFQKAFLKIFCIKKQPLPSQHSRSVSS

`CN1CCC(OC2c3ccccc3CCn3cc(C#CCNC(=O)OC(C)(C)C)nc32)CC1` (stereo not drawn) [Example 72, {3-[4-(1-methylpiperidin-4-yloxy)-9,10-dihydro-4H-3,10a-diaza-benzo[f]azulen-2-yl]-prop-2-ynyl}-carbamic acid tert-butyl ester]: the pKi (in general, the negative decadic logarithm of the Ki, by convention in mol/L) in experiment [1] is > 7.52. Moreover, the pIC50 – broadly, −log10 of the IC50, conventionally taken in molar units – in experiment [2] is > 7.52.

Take `CN1CCC(OC2c3ccccc3CCn3cc(C4=CCN(C(=O)OC(C)(C)C)CC4)nc32)CC1` (stereo not drawn) [Example 74, 4-[4-(1-methylpiperidin-4-yloxy)-9,10-dihydro-4H-3,10a-diaza-benzo[f]azulen-2-yl]-3,6-dihydro-2H-pyridine-1-carboxylic acid tert-butyl ester oxalate]: the pKi in experiment [1] is > 6.52. The pIC50 in experiment [2] is > 6.52.

Take `Cc1ccc(-c2cn3c(n2)C(OC2CCN(C)CC2)c2ccccc2CC3)c(Cl)c1` (stereo not drawn) [Example 75, 2-(2-chloro-4-methylphenyl)-4-(1-methylpiperidin-4-yloxy)-9,10-dihydro-4H-3,10a-diaza-benzo[f]azulene oxalate]: the pKi in experiment [1] was > 6.52. Moreover, the pIC50 in experiment [2] is > 7.52.

On to `CN1CCC(OC2c3ccccc3CCn3cc(C=CCc4ccccc4)nc32)CC1` (stereo not drawn) [Example 76, 4-(1-methylpiperidin-4-yloxy)-2-(3-phenylpropenyl)-9,10-dihydro-4H-3,10a-diaza-benzo[f]azulene oxalate], for which the pKi in experiment [1] was > 7.52. In addition, in experiment [2], the pIC50 is > 6.52.

As to `CN1CCC(OC2c3ccccc3CCn3cc(-c4cccc(Cl)c4)nc32)CC1` (stereo not drawn) [Example 77, 2-(3-chlorophenyl)-4-(1-methylpiperidin-4-yloxy)-9,10-dihydro-4H-3,10a-diaza-benzo[f]azulene oxalate], the pKi in experiment [1] was > 7.52. In addition, the pIC50 in experiment [2] was > 6.52.

Regarding `CN1CCC(OC2c3cccc(Br)c3CCn3cc(I)nc32)CC1` (stereo not drawn) [Example 79, 8-bromo-2-iodo-4-(1-methylpiperidin-4-yloxy)-9,10-dihydro-4H-3,10a-diaza-benzo[f]azulene], the pKi in experiment [1] was > 6.52. Further, in experiment [2], the pIC50 is > 6.00.

Take `CN1CCC(OC2c3ccccc3CCn3cc(C4=CCCCCC4)nc32)CC1` (stereo not drawn) [Example 80, 2-cyclohept-1-enyl-4-(1-methylpiperidin-4-yloxy)-9,10-dihydro-4H-3,10a-diaza-benzo[f]azulene]: the pKi in experiment [1] was > 7.52. For the same compound, the pIC50 in experiment [2] was > 6.52.

In the case of `Cc1ccc(-c2cn3c(n2)C(OC2CCN(C)CC2)c2ccccc2CC3)c(F)c1` (stereo not drawn) [Example 82, 2-(2-fluoro-4-methylphenyl)-4-(1-methylpiperidin-4-yloxy)-9,10-dihydro-4H-3,10a-diaza-benzo[f]azulene], in experiment [1], the pKi is > 6.52. Also, the pIC50 in experiment [2] was > 7.52.

Turning to `CN1CCC(OC2c3ccccc3CCn3cc(SC4CCCC4)nc32)CC1` (stereo not drawn) [Example 86, 2-cyclopentylsulfanyl-4-(1-methylpiperidin-4-yloxy)-9,10-dihydro-4H-3,10a-diaza-benzo[f]azulene oxalate], the pKi in experiment [1] was > 6.52. Moreover, in experiment [2], the pIC50 is > 7.52.

Consider `CN1CCC(OC2c3ccccc3CCn3cc(CCCc4ccccc4)nc32)CC1` (stereo not drawn) [Example 87, 4-(1-methylpiperidin-4-yloxy)-2-(3-phenylpropyl)-9,10-dihydro-4H-3,10a-diaza-benzo[f]azulene oxalate], for which the pKi in experiment [1] is > 7.52. For the same compound, the pIC50 in experiment [2] is > 7.52.

`CN1CCC(OC2c3ccccc3CCn3cc(SCc4cccs4)nc32)CC1` (stereo not drawn) [Example 88, 4-(1-methylpiperidin-4-yloxy)-2-(thiophen-2-ylmethylsulfanyl)-9,10-dihydro-4H-3,10a-diaza-benzo[f]azulene oxalate]: the pKi in experiment [1] was > 6.52. The pIC50 in experiment [2] was > 6.00.

For the compound `CN1CCC(OC2c3ccccc3CCn3cc(CCCCCc4ccccc4)nc32)CC1` (stereo not drawn) [Example 90, 4-(1-methylpiperidin-4-yloxy)-2-(5-phenylpentyl)-9,10-dihydro-4H-3,10a-diaza-benzo[f]azulene oxalate], in experiment [1], the negative-log Ki (pKi) was > 7.52. Moreover, in experiment [2], the pIC50 is > 7.52.

As for `CN1CCC(OC2c3ccccc3CCn3cc(C=CC(C)(C)C)nc32)CC1` (stereo not drawn) [Example 93, 2-(3,3-dimethylbut-1-enyl)-4-(1-methylpiperidin-4-yloxy)-9,10-dihydro-4H-3,10a-diaza-benzo[f]azulene], in experiment [1], the pKi is > 7.52. For the same compound, the pIC50 in experiment [2] was > 7.52.

For `CN1CCC(OC2c3ccccc3CCn3cc(CCC(C)(C)C)nc32)CC1` (stereo not drawn) [Example 94, 2-(3,3-dimethylbutyl)-4-(1-methylpiperidin-4-yloxy)-9,10-dihydro-4H-3,10a-diaza-benzo[f]azulene], in experiment [1], the pKi is > 7.52. The pIC50 in experiment [2] is > 7.52.

With `CN1CCC(OC2c3ccccc3CCn3cc(-c4ccc(N(C)C(=O)OC(C)(C)C)cc4)nc32)CC1` (stereo not drawn) [Example 97, methyl-{4-[4-(1-methylpiperidin-4-yloxy)-9,10-dihydro-4H-3,10a-diaza-benzo[f]azulen-2-yl]-phenyl}-carbamic acid tert-butyl ester oxalate], the pKi in experiment [1] was > 7.52. In addition, the pIC50 in experiment [2] was > 7.52.

On to `CN1CCC(OC2c3ccccc3CCn3cc(C=CC4CC4)nc32)CC1` (stereo not drawn) [Example 99, 2-(2-cyclopropylvinyl)-4-(1-methylpiperidin-4-yloxy)-9,10-dihydro-4H-3,10a-diaza-benzo[f]azulene oxalate], for which the pKi in experiment [1] was > 6.52. In experiment [2], the pIC50 was > 6.52.

Consider `Cc1c(-c2ccccc2)nc2n1CCc1ccccc1C2OC1CCN(C)CC1` (stereo not drawn) [Example 103, 1-Methyl-4-(1-methyl-piperidin-4-yloxy)-2-phenyl-9,10-dihydro-4H-3,10a-diaza-benzo[f]azulene], for which the pKi in experiment [1] was > 7.52. Moreover, the pIC50 in experiment [2] is > 7.52.

As to `CN1CCC(OC2c3ccccc3CCn3cc(CCCC4CCCC4)nc32)CC1` (stereo not drawn) [Example 105, 2-(3-cyclopentylpropyl)-4-(1-methylpiperidin-4-yloxy)-9,10-dihydro-4H-3,10a-diaza-benzo[f]azulene], the pKi in experiment [1] was > 7.52. Besides, the pIC50 in experiment [2] was > 7.52.

With `CN1CCC(OC2c3ccccc3CCn3cc(C=Cc4ccsc4)nc32)CC1` (stereo not drawn) [Example 112, 4-(1-methylpiperidin-4-yloxy)-2-(2-thiophen-3-ylvinyl)-9,10-dihydro-4H-3,10a-diaza-benzo[f]azulene], in experiment [1], the pKi is > 7.52. The pIC50 in experiment [2] was > 7.52.

Regarding `CN1CCC(OC2c3ccccc3CCn3cc(SCCc4ccccc4)nc32)CC1` (stereo not drawn) [Example 119, 4-(1-methylpiperidin-4-yloxy)-2-phenethylsulfanyl-9,10-dihydro-4H-3,10a-diaza-benzo[f]azulene], in experiment [1], the pKi was > 7.52. Also, in experiment [2], the pIC50 is > 7.52.

As to `CCc1c(-c2ccccc2)nc2n1CCc1ccccc1C2OC1CCN(C)CC1` (stereo not drawn) [Example 120, 1-ethyl-4-(1-methylpiperidin-4-yloxy)-2-phenyl-9,10-dihydro-4H-3,10a-diaza-benzo[f]azulene oxalate], the pKi in experiment [1] is > 7.52. Also, in experiment [2], the pIC50 was > 7.52.

On to `CN1CCC(OC2c3ccccc3CCn3cc(C=CCOc4ccccc4)nc32)CC1` (stereo not drawn) [Example 121, 4-(1-methylpiperidin-4-yloxy)-2-(3-phenoxypropenyl)-9,10-dihydro-4H-3,10a-diaza-benzo[f]azulene], for which the pKi in experiment [1] was > 7.52. Besides, the pIC50 in experiment [2] was > 7.52.

Regarding `Cc1c(-c2ccc(Br)cc2)nc2n1CCc1ccccc1C2OC1CCN(C)CC1` (stereo not drawn) [Example 122, 2-(4-bromophenyl)-1-methyl-4-(1-methylpiperidin-4-yloxy)-9,10-dihydro-4H-3,10a-diaza-benzo[f]azulene], in experiment [1], the pKi was > 7.52. In experiment [2], the pIC50 was > 7.52.

On to `Cc1c(-c2ccc(N(C)C(=O)OC(C)(C)C)cc2)nc2n1CCc1ccccc1C2OC1CCN(C)CC1` (stereo not drawn) [Example 125, methyl-{4-[1-methyl-4-(1-methylpiperidin-4-yloxy)-9,10-dihydro-4H-3,10a-diaza-benzo[f]azulen-2-yl]-phenyl}carbamic acid tert-butyl ester], for which the pKi in experiment [1] is > 7.52. Besides, the pIC50 in experiment [2] is > 7.52.

For the compound `CN1CCC(OC2c3ccccc3CCn3cc(CCCCc4ccccc4)nc32)CC1` (stereo not drawn) [Example 129, 4-(1-methylpiperidin-4-yloxy)-2-(4-phenylbutyl)-9,10-dihydro-4H-3,10a-diaza-benzo[f]azulene oxalate], in experiment [1], the pKi is > 7.52. The pIC50 in experiment [2] was > 7.52.

For the compound `Cc1c(-c2ccc(NC(=O)OC(C)(C)C)cc2)nc2n1CCc1ccccc1C2OC1CCN(C)CC1` (stereo not drawn) [Example 130, {4-[1-methyl-4-(1-methylpiperidin-4-yloxy)-9,10-dihydro-4H-3,10a-diaza-benzo[f]azulen-2-yl]-phenyl}-carbamic acid tert-butyl ester], in experiment [1], the pKi was > 7.52. The negative logarithm of the IC50 (pIC50) in experiment [2] was > 7.52.

For the compound `CN1CCC(OC2c3ccccc3CCn3c2nc(-c2ccccc2)c3Cl)CC1` (stereo not drawn) [Example 134, 1-chloro-4-(1-methylpiperidin-4-yloxy)-2-phenyl-9,10-dihydro-4H-3,10a-diaza-benzo[f]azulene], the pKi in experiment [1] is > 7.52. Besides, in experiment [2], the pIC50 was > 7.52.

For the compound `CN1CCC(OC2c3ccccc3CCn3c2nc(CCCCCc2ccccc2)c3Cl)CC1` (stereo not drawn) [Example 139, 1-chloro-4-(1-methylpiperidin-4-yloxy)-2-(5-phenylpentyl)-9,10-dihydro-4H-3,10a-diaza-benzo[f]azulene oxalate], in experiment [1], the pKi is > 7.52. The pIC50 in experiment [2] is > 7.52.

Take `Cc1c(-c2ccc(N3CCN(C(C)(C)C)C3=O)cc2)nc2n1CCc1ccccc1C2OC1CCN(C)CC1` (stereo not drawn) [Example 140, 1-tert-butyl-3-{4-[1-methyl-4-(1-methylpiperidin-4-yloxy)-9,10-dihydro-4H-3,10a-diaza-benzo[f]azulen-2-yl]-phenyl}-imidazolidin-2-one]: in experiment [1], the pKi is > 7.52. The negative-log IC50 (pIC50) in experiment [2] is > 6.52.

`Cc1c(-c2ccc(SC(C)(C)CCO)cc2)nc2n1CCc1ccccc1C2OC1CCN(C)CC1` (stereo not drawn) [Example 152, 3-methyl-3-{4-[1-methyl-4-(1-methylpiperidin-4-yloxy)-9,10-dihydro-4H-3,10a-diaza-benzo[f]azulen-2-yl]-phenylsulfanyl}-butan-1-ol]: the pKi in experiment [1] is > 7.52. In experiment [2], the negative-log IC50 (pIC50) was > 7.52.
